Experimental data from the supplement of paper PMC11061612.

What was measured:
Assay in all cases: combination Emax (second highest fraction inhibited in the dose matrix, 72 h); higher = more inhibition; extreme values may be limits of the assay
[1] = test system: NCI-H524 (Small Cell Lung Carcinoma)
Method in brief: (§1)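 After 24 hours at 37°C and 5% CO2 in 1536-well plates, cells in DMEM/F12 or RPMI plus 10% FBS received two-drug dose matrices for 72 hours. Viability came from CellTiter-Glo 2.0 luminescence and was scaled as inhibition, anchored at 0 by vehicle wells and at 1 by blank wells. Combination Emax is taken as the second-highest inhibition in the matrix, and Bliss excess as the observed combination effect less EA + EB − EA·EB, with EA and EB the single-agent effects.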

[2] = test system: SAS (Oral Cavity Carcinoma)
Method in brief: as §1

[3] = test system: ESS-1 (Other Solid Carcinomas)
Method in brief: as §1

[4] = test system: NCI-H2722 (Mesothelioma)
Method in brief: as §1

[5] = test system: OVCAR-5 (Ovarian Carcinoma)
Method in brief: as §1

[6] = test system: TGBC1TKB (Biliary Tract Carcinoma)
Method in brief: as §1

[7] = test system: Hs-746T (Gastric Carcinoma)
Method in brief: as §1

[8] = test system: NCI-H209 (Small Cell Lung Carcinoma)
Method in brief: as §1

[9] = test system: Detroit562 (Head and Neck Carcinoma)
Method in brief: as §1

[10] = test system: A673 (Ewing's Sarcoma)
Method in brief: as §1

| Structure (SMILES) | combination Emax [1] | combination Emax [2] | combination Emax [3] | combination Emax [4] | combination Emax [5] | combination Emax [6] | combination Emax [7] | combination Emax [8] | combination Emax [9] | combination Emax [10] |
| --- | --- | --- | --- | --- | --- | --- | --- | --- | --- | --- |
| COc1nnc2ccc(N3CCC(c4ccc(OCCN5CCN(C)C(=O)[C@H]5C)cc4)CC3)nn12 [AZD5153] + CC1(C)CCC(CN2CCN(c3ccc(C(=O)NS(=O)(=O)c4ccc(NCC5CCOCC5)c([N+](=O)[O-])c4)c(Oc4cnc5[nH]ccc5c4)c3)CC2)=C(c2ccc(Cl)cc2)C1 [Venetoclax] (first compound max 1 µM, 7x7, partner max 1 µM) | 0.694 | 0.754 | 0.63 | 0.471 | 0.514 | 0.293 | 0.512 | 0.727 | 0.8 | 0.505 |
| CN(CCO)CC[C@H](CSc1ccccc1)Nc1ccc(S(=O)(=O)NC(=O)c2ccc(N3CCC([C@@H](O)c4ccccc4-c4ccc(Cl)cc4)CC3)cc2)cc1S(=O)(=O)C(F)(F)F [AZD4320] + C1CN(CCC1(C(=O)N[C@@H](CCO)C2=CC=C(C=C2)Cl)N)C3=NC=NC4=C3C=CN4 [Capivasertib] (first compound max 1 µM, 7x7, partner max 3 µM) | 0.765 | 0.132 | 0.579 | 0.22 | 0.17 | 0.466 | 0.46 | 1 | 0.414 | 0.905 |
| CC1(C)CCC(CN2CCN(c3ccc(C(=O)NS(=O)(=O)c4ccc(NCC5CCOCC5)c([N+](=O)[O-])c4)c(Oc4cnc5[nH]ccc5c4)c3)CC2)=C(c2ccc(Cl)cc2)C1 [Venetoclax] + Cn1cnc2c(F)c(Nc3ccc(Br)cc3Cl)c(C(=O)NOCCO)cc21 [Selumetinib] (first compound max 1 µM, 7x7, partner max 3 µM) | 0.113 | 0.368 | 0.864 | 0.14 | 0.572 | 0.167 | 0.242 | 0.436 | 0.321 | 0.65 |
| Cc1c2c(nn1C)CSCc1cc(n(C)n1)CSc1cc(c3ccccc3c1)OCCCc1c(C(=O)O)n(C)c3c-2c(Cl)ccc13 [AZD5991] + CCN(CCO)CCCOc1ccc2c(Nc3cc(CC(=O)Nc4cccc(F)c4)[nH]n3)ncnc2c1 [AZD2811] (first compound max 1 µM, 7x7, partner max 1 µM) | 1 | 0.268 | 0.733 | 0.29 | 0.205 | 0.192 | 0.257 | 0.967 | 0.951 | 0.946 |
| Cn1cnc2c(F)c(Nc3ccc(Br)cc3Cl)c(C(=O)NOCCO)cc21 [Selumetinib] + C[C@@H]1COCCN1C2=NC(=NC(=C2)C3(CC3)[S@](=N)(=O)C)C4=C5C=CNC5=NC=C4 [AZD6738] (first compound max 10 µM, 7x7, partner max 10 µM) | 0.681 | 0.806 | 0.953 | 0.277 | 0.671 | 0.347 | 0.579 | 0.878 | 0.88 | 0.648 |
| CC1(C)CCC(CN2CCN(c3ccc(C(=O)NS(=O)(=O)c4ccc(NCC5CCOCC5)c([N+](=O)[O-])c4)c(Oc4cnc5[nH]ccc5c4)c3)CC2)=C(c2ccc(Cl)cc2)C1 [Venetoclax] + C=CCn1c(=O)c2cnc(Nc3ccc(N4CCN(C)CC4)cc3)nc2n1-c1cccc(C(C)(C)O)n1 [AZD1775] (first compound max 1 µM, partner max 1 µM) | 0.895 | 0.761 | 1 | 0.311 | 0.75 | 0.35 | 0.481 | 0.978 | 0.545 | 0.862 |
| NC1(C(=O)N[C@@H](CCO)c2ccc(Cl)cc2)CCN(c2ncnc3[nH]ccc23)CC1 [Capivasertib] + C[C@@H]1COCCN1C2=NC(=NC(=C2)C3(CC3)[S@](=N)(=O)C)C4=C5C=CNC5=NC=C4 [AZD6738] (first compound max 10 µM, 7x7, partner max 10 µM) | 0.712 | 0.829 | 0.959 | 0.533 | 0.742 | 0.559 | 0.582 | 0.9 | 0.918 | 0.804 |
| CS(=O)(=O)CCNCc1ccc(-c2ccc3ncnc(Nc4ccc(OCc5cccc(F)c5)c(Cl)c4)c3c2)o1 [Lapatinib] + C[C@@H](Oc1cc(-c2cnn(C3CCNCC3)c2)cnc1N)c1c(Cl)ccc(F)c1Cl [Crizotinib] (first compound max 10 µM, 7x7, partner max 10 µM) | 0.952 | 0.825 | 0.917 | 0.449 | 0.834 | 0.616 | 0.876 | 0.927 | 1 | 0.808 |
| Cc1c2c(nn1C)CSCc1cc(n(C)n1)CSc1cc(c3ccccc3c1)OCCCc1c(C(=O)O)n(C)c3c-2c(Cl)ccc13 [AZD5991] + C1CN(CCC1(C(=O)N[C@@H](CCO)C2=CC=C(C=C2)Cl)N)C3=NC=NC4=C3C=CN4 [Capivasertib] (first compound max 1 µM, 7x7, partner max 3 µM) | 0.452 | 0.189 | 0.366 | 0.173 | 0.215 | 0.292 | 0.337 | 0.36 | 0.325 | 0.421 |
